From patent US20230357447A1, “TUMOR ACTIVATED MULTISPECIFIC ANTIBODIES FOR TARGETING CD28 AND PD-L1 AND METHODS OF USE THEREOF” (Janux Therapeutics, Inc., priority 2022, published 2023)

Tested on: anti-CD28 scFv
Assay: Phage binding ELISA (panning) of clonal phage on anti-CD28 scFv, with or without CD28 soluble protein
Details: for Phage binding ELISA Backgroud signal / Backgroud signal: clonal phage supernatant; for Backgroud signal / CD28 scFv signal in presence of CD28 / CD28 scFv signal: Phage binding ELISA; for Backgroud signal: background wells; for Phage binding ELISA CD28 scFv signal in presence of CD28: clonal phage supernatant on captured anti-CD28 scFv pre-incubated with CD28 soluble protein; for Phage binding ELISA CD28 scFv signal: clonal phage supernatant on captured biotinylated anti-CD28 scFv; for Phage binding ELISA CD28 scFv signal / CD28 scFv signal: blocking buffer alone; for CD28 scFv signal in presence of CD28: captured anti-CD28 scFv pre-incubated with CD28 soluble protein; for CD28 scFv signal: captured biotinylated anti-CD28 scFv
Protocol: Clonal phage were harvested as crude supernatants and screened via standard enzyme linked immunosorbent assays (ELISAs). […] Prior to the addition of clonal phage, wells were incubated with blocking buffer and CD28 soluble protein or blocking buffer alone. Without washing or aspirating, clonal phage supernatants were then added to the wells and incubated for a short time. Wells were then washed followed by detection of bound phage using a horse radish peroxidase conjugated anti-M13 antibody. Clonal phage of interest were then sent for sequence analysis.

[1] = background (no anti-CD28 scFv signal)

Substance | Phage binding ELISA Backgroud signal (background signal) | also measured
Phage-180 (MHWCPRYLWDECFN) | 0.132 | 
Phage-132 (MDWCPTYLWFECFN) |  | Backgroud signal: 0.205
Phage-130 (MDWCPRYLWDACFF) |  | Backgroud signal: 0.066
Phage-206 (IHWCPINMWDKCYN) | 0.060 | 
Phage-239 (MDWCPRYLWHVCFN) | 0.187 | 
Phage-386 (NHWCPTTLWNRCVA) |  | Phage binding ELISA Backgroud signal [1]: 0.293
Phage-217 (MDWCPWDMWDKCFN) | 0.101 | 
Phage-94 (MDWCPRDLWSLCFY) |  | Backgroud signal: 0.065
Phage-74 (MDWCPRDMWLFCYN) | 0.097 | Phage binding ELISA CD28 scFv signal in presence of CD28: 1.023; Phage binding ELISA CD28 scFv signal: 2.707
Phage-413 (MDWCPSDMWSNCFN) |  | Phage binding ELISA Backgroud signal [1]: 0.070
Phage-203 (MSWCPRDMWFYCYA) | 0.065 | 
Phage-221 (TTWCPTSMWLHCFD) | 0.096 | 
Phage-426 (MFLCPSAMWNRCFY) |  | Phage binding ELISA Backgroud signal [1]: 0.069
Phage-281 (MDWCPRSLWFLCFN) | 1.110 | 
Phage-249 (MDWCPSDMWAHCYN) | 0.191 | 
Phage-319 (MSWCPRDLWHLCFF) | 0.077 | 
Phage-266 (VTSCPTTMWNRCFS) | 0.396 | 
Phage-263 (MDWCPRHMWHECFA) | 0.074 | 
Phage-100 (MDWCPRYLWTECFN) |  | Backgroud signal: 0.062
Phage-72 (MFWCPTTMWNRCFT) | 0.111 | Phage binding ELISA CD28 scFv signal in presence of CD28: 0.338; Phage binding ELISA CD28 scFv signal: 0.662
Phage-357 (MDWCPRLLWHECFN) | 0.071 | 

Substance | Phage binding ELISA Backgroud signal (background signal) | also measured
Phage-185 (MERCPRFLWNECFN) | 0.132 | 
Phage-117 (MDWCPRYLWFECFS) |  | Backgroud signal: 0.079
Phage-367 (MDWCPSFLWYECFN) | 0.063 | 
Phage-77 (MDWCPFYLWDECFN) | 0.092 | Phage binding ELISA CD28 scFv signal in presence of CD28: 0.291; Phage binding ELISA CD28 scFv signal: 2.672
Phage-60 (MDWCPRTLWYLCFN) | 0.508 | Phage binding ELISA CD28 scFv signal in presence of CD28: 1.198; Phage binding ELISA CD28 scFv signal: 2.593
Phage-42 (MDWCPRHLWVHCFN) | 0.071 | 
Phage-177 (MDWCPVSLWDHCFN) | 0.075 | 
Phage-365 (MDWCPSYLWPVCFN) | 0.079 | 
Phage-176 (MDWCPSDLWHECFH) | 0.075 | 
Phage-369 (MHWCPRDLWYECFA) | 0.072 | 
Phage-300 (MDWCPRHLWFECFF) | 0.178 | 
Phage-301 (MDWCPRYLWHECFF) | 0.082 | 
Phage-192 (DVWCPKYMWSLCFN) | 0.101 | 
Phage-39 (MDWCPMHLWHQCFN) | 0.073 | 
Phage-109 (MDWCPKNLWHVCFN) |  | CD28 scFv signal in presence of CD28: 0.248; CD28 scFv signal: 2.530; Backgroud signal: 0.081
Phage-223 (MDWCPRDRWVDCFF) | 0.066 | 
Phage-303 (MDWCPRYLWTECFS) | 0.074 | 
Phage-316 (MDWCPRSLWNYCFA) | 0.067 | 
Phage-324 (MDWCPRHLWYECFS) | 0.216 | 
Phage-91 (MDWCPRDLWFLCYN) |  | CD28 scFv signal in presence of CD28: 0.424; CD28 scFv signal: 2.587; Backgroud signal: 0.060
Phage-261 (MDWCPMFMWHECFN) | 0.102 | 

Substance | Phage binding ELISA Backgroud signal (background signal) | also measured
Phage-138 (MDWCPTNLWHECFA) |  | Backgroud signal: 0.061
Phage-399 (MDWCPRSMWDSCFN) |  | Phage binding ELISA Backgroud signal [1]: 0.332
Phage-181 (MYWCPRDLWDVCFN) | 0.145 | 
Phage-299 (MDWCPIYLWAECFN) | 0.078 | 
Phage-283 (MDWCPRHLWNECFN) | 0.079 | 
Phage-362 (MDWCPRILWHECFS) | 0.064 | 
Phage-251 (MDWCPRFMWSECFS) | 0.092 | 
Phage-337 (MDWCPKPLWHVCFA) | 0.069 | 
Phage-167 (MSWCPQDLWHVCFN) | 0.095 | 
Phage-129 (MDWCPSYLWTVCFA) |  | Backgroud signal: 0.062
Phage-178 (LDWCPRDLWHVCFF) | 0.176 | 
Phage-146 (MDWCPRHLWSECFY) |  | Backgroud signal: 0.136
Phage-353 (IDWCPLHLWHECYH) | 0.067 | 
Phage-288 (MDWCPIALWDFCFA) | 0.073 | 
Phage-341 (MDWCPRHLWDECFN) | 0.084 | 
Phage-276 (IDWCPKIHWDLCYF) | 0.072 | 
Phage-145 (MDWCPKHLWIECFA) |  | Backgroud signal: 0.065
Phage-139 (MDWCPRDLWDVCFA) |  | Backgroud signal: 0.096
Phage-372 (MDWCPRYLWVDCFA) | 0.095 | 
Phage-112 (MHWCPRALWDVCYN) |  | CD28 scFv signal in presence of CD28: 0.240; CD28 scFv signal: 2.528; Backgroud signal: 0.077
Phage-267 (MTLCLSVDLVHCWY) | 0.114 | 

Substance | Phage binding ELISA Backgroud signal (background signal) | also measured
Phage-220 (FDFCPTTMWTYCQH) | 0.084 | 
Phage-95 (MDWCPRFLWSECFN) |  | Backgroud signal: 0.062
Phage-255 (MDWCPRHLWSVCFN) | 0.064 | 
Phage-98 (MDWCPKYLWDVCFN) |  | CD28 scFv signal in presence of CD28: 0.422; CD28 scFv signal: 2.566; Backgroud signal: 0.096
Phage-432 (IDWCPIIQGLPCFA) |  | Phage binding ELISA Backgroud signal [1]: 0.058
Phage-119 (MDWCPRYLWHMCYS) |  | Backgroud signal: 0.129
Phage-142 (MDWCPVILWDFCFN) |  | Backgroud signal: 0.066
Phage-194 (MDWCPSDMWHECYA) | 0.062 | 
Phage-88 (MDWCPIHLWHYCFN) |  | Backgroud signal: 0.078
Phage-409 (LHWCPITMWTYCYY) |  | Phage binding ELISA Backgroud signal [1]: 0.229
Phage-366 (MHWCPLYLWDECFY) | 0.153 | 
Phage-43 (MDWCPRALWHECFY) | 0.115 | Phage binding ELISA CD28 scFv signal in presence of CD28: 0.252; Phage binding ELISA CD28 scFv signal: 2.499
Phage-256 (MDWCPFDLWHVCYN) | 0.089 | 
Phage-444 (VNQCTRYRWAECLN) |  | Phage binding ELISA Backgroud signal [1]: 0.465
Phage-164 (MDWCPKFLWDLCFA) | 0.100 | 
Phage-363 (MNWCPMHLWAECFN) | 0.087 | 
Phage-439 (MDWCPRDRWDVCFA) |  | Phage binding ELISA Backgroud signal [1]: 0.073
Phage-377 (MDWCPFDLWLECFN) | 0.087 | 
Phage-396 (TDWCPRDMWYLCFN) |  | Phage binding ELISA Backgroud signal [1]: 0.082
Phage-308 (MDWCPKSLWAECFN) | 0.395 | 
Phage-397 (MDWCPRAMWDYCFY) |  | Phage binding ELISA Backgroud signal [1]: 0.123
